Read-outs that look alike come from different tables or passages of the source.
Legend:
[1] = system: Key Broadleaf Weed and Crop Species; assay: Post-emergent Test II herbicidal activity (Table 5); format: in vivo; conditions: post-emergence, 336 h, 14 days after application; for pest or weed control at 70 g/ha: application rate 70 g ai/ha; for pest or weed control at 140 g/ha: application rate 140 g ai/ha
Outline: (§1)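 Scoring: visual, 0–100% injury at 14 d versus untreated. Treatment: overhead track spray, 187 L/ha, onto plants at the first–second true leaf stage. Growth: greenhouse, ~15 h light, 23–29 °C day, 22–28 °C night.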

[2] = system: Key Grass and Sedge Weeds as well as Grass Crops; assay: Post-emergent Test II herbicidal activity (Table 6); format: in vivo; conditions: post-emergence, 336 h; for pest or weed control at 70 g/ha: 70 g ai/ha; for pest or weed control at 140 g/ha: 140 g ai/ha
Outline: as §1

[3] = ABUTH: velvetleaf (Abutilon theophrasti), read-out: Visual Growth Reduction (%) 14 Days After Application, ABUTH
[4] = AMARE: redroot pigweed (Amaranthus retroflexus), read-out: Visual Growth Reduction (%) 14 Days After Application, AMARE
[5] = BRSNN: oilseed-rape, canola (Brassica napus), read-out: Visual Growth Reduction (%) 14 Days After Application, BRSNN
[6] = CHEAL: lambsquarters (Chenopodium album), read-out: Visual Growth Reduction (%) 14 Days After Application, CHEAL
[7] = EPHHL: wild poinsettia (Euphorbia heterophylla), read-out: Visual Growth Reduction (%) 14 Days After Application, EPHHL
[8] = HELAN: sunflower (Helianthus annuus), read-out: Visual Growth Reduction (%) 14 Days After Application, HELAN
[9] = VIOTR: wild pansy (Viola tricolor), read-out: Visual Growth Reduction (%) 14 Days After Application, VIOTR
[10] = CYPES: yellow nutsedge (Cyperus esculentus), read-out: Visual Growth Reduction (%) 14 Days After Application, CYPES
[11] = DIGSA: crabgrass (Digitaria sanguinalis), read-out: Visual Growth Reduction (%) 14 Days After Application, DIGSA
[12] = ECHCG: barnyardgrass (Echinochloa crus-galli), read-out: Visual Growth Reduction (%) 14 Days After Application, ECHCG
[13] = ORYSA: rice (Oryza sativa), crop, read-out: Visual Growth Reduction (%) 14 Days After Application, ORYSA
[14] = SETFA: giant foxtail (Setaria faberi), read-out: Visual Growth Reduction (%) 14 Days After Application, SETFA
[15] = SORVU: grain sorghum (Sorghum vulgare), read-out: Visual Growth Reduction (%) 14 Days After Application, SORVU
[16] = TRZSS (wheat, Triticum aestivum), crop, read-out: Visual Growth Reduction (%) 14 Days After Application, TRZSS
[17] = ZEAMX: maize, corn (Zea mays), crop, read-out: Visual Growth Reduction (%) 14 Days After Application, ZEAMX

In the case of `COC(=O)c1nc(-c2ccc(Br)c(F)c2F)cc(N)c1Cl` [Compound 114, methyl 4-amino-6-(4-bromo-2,3-difluorophenyl)-3-chloropicolinate], the pest or weed control at 70 g/ha [1, 3] is reported as 95 to 100%, the pest or weed control at 140 g/ha [1, 3] is reported as 95 to 100% and the pest or weed control at 70 g/ha [1, 4] is reported as 95 to 100%. It also gave a pest or weed control at 140 g/ha [1, 4] of 95 to 100%, a pest or weed control at 70 g/ha [1, 5] of 85 to 94% and a pest or weed control at 140 g/ha [1, 5] of 95 to 100%. It also gave a pest or weed control at 70 g/ha [1, 6] of 95 to 100%, a pest or weed control at 140 g/ha [1, 6] of 95 to 100% and a pest or weed control at 70 g/ha [1, 7] of 95 to 100%. For the same compound, the pest or weed control at 140 g/ha [1, 7] was 95 to 100%, the pest or weed control at 70 g/ha [1, 8] was 95 to 100% and the pest or weed control at 140 g/ha [1, 8] was 95 to 100%. The pest or weed control at 70 g/ha [1, 9] was 95 to 100%, the pest or weed control at 140 g/ha [1, 9] was 95 to 100% and the pest or weed control at 70 g/ha [2, 10] was 95 to 100%. It also gave a pest or weed control at 140 g/ha [2, 10] of 95 to 100%, a pest or weed control at 70 g/ha [2, 11] of 60 to 74% and a pest or weed control at 140 g/ha [2, 11] of 60 to 74%. The pest or weed control at 70 g/ha [2, 12] was 95 to 100%, the pest or weed control at 140 g/ha [2, 12] was 95 to 100% and the pest or weed control at 70 g/ha [2, 13] was 0 to 29%. For the same compound, the pest or weed control at 140 g/ha [2, 13] was 0 to 29%, the pest or weed control at 70 g/ha [2, 14] was 60 to 74% and the pest or weed control at 140 g/ha [2, 14] was 75 to 84%. It also gave a pest or weed control at 70 g/ha [2, 15] of 95 to 100%, a pest or weed control at 140 g/ha [2, 15] of 95 to 100% and a pest or weed control at 70 g/ha [2, 16] of 30 to 44%. The pest or weed control at 140 g/ha [2, 16] was 45 to 59%, the pest or weed control at 70 g/ha [2, 17] was 85 to 94% and the pest or weed control at 140 g/ha [2, 17] was 85 to 94%.
